This note sets out measurements from US20250082705A1, “COMPOSITION FOR IMPROVING, PREVENTING, OR TREATING SLEEP DISORDERS COMPRISING DENDROPANAX MORBIFERA EXTRACTS” (JEJU PANATEK Co., Ltd., priority 2023, published 2025).

Assay [1] in a line: ABTS radical scavenging assay. The assay is classed as biochemical. As to conditions: mean ± standard deviation. How it is done:
(§1) The antioxidant activity of the Dendropanax morbifera ethanol extract was analyzed using an ABTS (2,2′-azino-bis (3-ethylbenzothiazoline-6-sulfonic acid)) assay and a DPPH (1,1-diphenyl-2-picrylhydrazyl) assay. As the experimental result, the concentration of a sample that appeared when the absorbance decreased by 50% was represented as IC50, and ascorbic acid was used as a standard material.
Specifically, in the ABTS method, the ABTS solution was mixed with the extract at a ratio of 20:1 and the absorbance was measured. Light was blocked at room temperature and the results were confirmed at 414 nm after 60 minutes of reaction. The ABTS solution was obtained by dissolving 7.4 mM ABTS and 2.6 mM potassium persulfate in distilled water and stored at 4° C. for 1 day, and adjusted so that a blank value was 1.4 to 1.5.

Assay [2] can be described thus: DPPH radical scavenging assay. Particulars: mean ± standard deviation. The assay is classed as biochemical. How it is done: as §1
In the DPPH method, the absorbance was measured by mixing a
DPPH·methanol solution with the sample in a 1:1 ratio. Light was blocked at room temperature and the results were confirmed at 520 nm after 5 minutes of reaction. The DPPH·methanol solution was adjusted so that the blank value was 1.7 to 1.8.

As to `O=C1O[C@H]([C@@H](O)CO)C(O)=C1O` [Ascorbic acid], in assay [1], the “ABTS IC50” value turned out to be 0.071 ± 0.002 mg/mL. For the same compound, the “DPPH IC50” value in assay [2] is 0.025 ± 0.001 mg/mL.
